Reference: US20210347709A1, “RADIOFLUORINATED GPC3-BINDING PEPTIDES FOR PET IMAGING OF HEPATOCELLULAR CARCINOMA” (University of Southern California, priority 2020, published 2021)

Legend:
[1] = In vitro biocompatibility (cell counting Kit-8 cell viability); assay type: cell-based; conditions: human, HepG2 cells, all concentrations 120 to 840 μg/ml
Protocol: In Vitro Biocompatibility. A colorimetric assay was utilized to determine cell viability after treating GPC3 positive HepG2 cells with the GP2076 or GP2633 peptide. The assay was carried out according to the instruction of the manufacturer. In brief, HepG2 cells were seeded at a density of 1×10^4 cells/well in a 96-well plate. After the incubation of the GP2076 or GP2633 peptide at various concentrations (0, 120, 240, 360, 480, 600, 720, and 840 μg/ml) with HepG2 cells for 24 h, the HepG2 cells were examined using the cell counting Kit-8 (KeyGen Biotech, Nanjing, China). The absorbance at 450 nm of all the wells in the 96-well microplate was recorded on a microplate reader (BIOTEK ELX800, USA). The experiment was performed in quadruplicate.

GPC3 = molecular target: T1, GPC3 (Homo sapiens, UniProt P51654); test: Binding assay by surface plasmon resonance (SPR); conditions: GPC3 protein immobilized on 3D Dextran chip
T1 construct: purchased Novoprotein, China
T1 sequence (P51654 25-554): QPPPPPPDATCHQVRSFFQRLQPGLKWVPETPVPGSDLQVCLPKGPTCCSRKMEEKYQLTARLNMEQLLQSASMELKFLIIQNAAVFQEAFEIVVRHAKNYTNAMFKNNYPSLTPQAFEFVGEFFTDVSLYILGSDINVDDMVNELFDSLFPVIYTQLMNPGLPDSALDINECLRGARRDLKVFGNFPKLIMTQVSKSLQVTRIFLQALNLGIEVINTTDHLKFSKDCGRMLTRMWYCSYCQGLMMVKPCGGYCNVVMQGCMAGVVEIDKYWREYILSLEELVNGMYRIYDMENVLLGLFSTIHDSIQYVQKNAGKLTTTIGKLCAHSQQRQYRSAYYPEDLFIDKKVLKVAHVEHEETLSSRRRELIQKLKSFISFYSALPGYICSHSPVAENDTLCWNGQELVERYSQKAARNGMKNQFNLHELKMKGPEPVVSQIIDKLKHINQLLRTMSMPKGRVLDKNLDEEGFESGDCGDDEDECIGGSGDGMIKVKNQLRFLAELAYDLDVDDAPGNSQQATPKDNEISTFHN
Protocol: Binding Assay. The binding affinity of the GP2076 or GP2633 peptide for GPC3 was determined using surface plasmon resonance (SPR) measurements (PlexArray HT A100, Plexera, USA). In brief, after the GPC3 protein (Novoprotein, China) was immobilized on a 3D Dextran chip, the GP2076 or GP2633 peptide flowed at increasing concentrations (400 nM and 800 nM). The results were analyzed by PlexeraDE software.

Row | Compound | viability at 24 h [1] [%] | Kd (GPC3) [nM]
1 | CC(C)C[C@H](NC(=O)[C@H](CCCNC(=N)N)NC(=S)Nc1ccc(CC2CN(CC(=O)O)CCN(CC(=O)O)CCN2CC(=O)O)cc1)C(=O)N[C@@H](CC(N)=O)C(=O)N[C@H](C(=O)NCC(=O)NCC(=O)N[C@H](C(=O)N[C@@H](Cc1ccc(O)cc1)C(=O)N[C@@H](Cc1ccccc1)C(=O)N[C@@H](CC(C)C)C(=O)N[C@H](C(=O)N[C@H](C(=O)N[C@@H](CCCNC(=N)N)C(=O)N[C@@H](CCC(N)=O)C(=O)O)[C@@H](C)O)[C@@H](C)O)[C@@H](C)O)C(C)C (stereo partly shown) [GP2076] | > 90 | 101
2 | CC(C)C[C@H](NC(=O)[C@H](CCCNC(=N)N)NC(=O)[C@H](CC(N)=O)NC(=O)[C@H](CC(=O)O)NC(=O)[C@H](CCCNC(=N)N)NC(=O)CNC(=O)CNC(=O)CNC(=S)Nc1ccc(CC2CN(CC(=O)O)CCN(CC(=O)O)CCN2CC(=O)O)cc1)C(=O)N[C@@H](CC(N)=O)C(=O)N[C@H](C(=O)NCC(=O)NCC(=O)N[C@H](C(=O)N[C@@H](Cc1ccc(O)cc1)C(=O)N[C@@H](Cc1ccccc1)C(=O)N[C@@H](CC(C)C)C(=O)N[C@H](C(=O)N[C@H](C(=O)N[C@@H](CCCNC(=N)N)C(=O)N[C@@H](CCC(N)=O)C(=O)O)[C@@H](C)O)[C@@H](C)O)[C@@H](C)O)C(C)C (stereo partly shown) [GP2633] | > 90 | 63.3
